Source: ChEMBL document CHEMBL1806473, “Structure-based optimization of click-based histone deacetylase inhibitors” (Eur J Med Chem, 2011)

These molecules were tested against Histone deacetylase (assay: Inhibition of HDAC in human HeLa cells using Ac-Arg-Gly-Lys(Ac)-AMC as fluorescent substrate after 20 mins by fluorescence assay).
Type: cell-based

SMILES	IC50
CC(C)CC(/C=C/c1ccccc1)n1cc(/C=C/C(=O)NO)nn1 (stereo not drawn)	838 nM
CC(C)(C)C(/C=C/c1ccccc1)n1cc(/C=C/C(=O)NO)nn1 (stereo not drawn)	18 nM
CCCCC(/C=C/c1ccccc1)n1cc(/C=C/C(=O)NO)nn1 (stereo not drawn)	137 nM
O=C(/C=C/c1cn(C(/C=C/c2ccccc2)C2CCCC2)nn1)NO (stereo not drawn)	115 nM
O=C(/C=C/c1cn(C(/C=C/c2ccccc2)C2CCC2)nn1)NO (stereo not drawn)	54 nM
CCCC(/C=C/c1ccccc1)n1cc(/C=C/C(=O)NO)nn1 (stereo not drawn)	132 nM

The next lines start with the values.

IC50	SMILES
90 nM	C=CCC(/C=C/c1ccccc1)n1cc(/C=C/C(=O)NO)nn1 (stereo not drawn)
55 nM	CCC(/C=C/c1ccccc1)n1cc(/C=C/C(=O)NO)nn1 (stereo not drawn)
510 nM	O=C(/C=C/c1cn(C(/C=C/c2ccccc2)Cc2cccc(Oc3ccccc3)c2)nn1)NO (stereo not drawn)
111 nM	O=C(/C=C/c1cn(C(/C=C/c2ccccc2)Cc2cccc3ccccc23)nn1)NO (stereo not drawn)
403 nM	O=C(/C=C/c1cn(C(/C=C/c2ccccc2)Cc2cccc(-c3ccccc3)c2)nn1)NO (stereo not drawn)
171 nM	O=C(/C=C/c1cn(C(/C=C/c2ccccc2)Cc2nccs2)nn1)NO (stereo not drawn)
94 nM	O=C(/C=C/c1cn(C(/C=C/c2ccccc2)Cc2ccc3ccccc3c2)nn1)NO (stereo not drawn)
